Reference: patent publication US20210045385A1, “PYRIDAZINONE-SUBSTITUTED KETOXIMES AS HERBICIDES” (FMC Corporation, priority 2018, published 2021)

Legend:
Type in all cases: in vivo
[1] = system: Italian ryegrass (Lolium mutiflorum); experiment: Test C preemergence, visual plant response rating; settings: Test C, 0 is no effect, 100 is complete control
Method in brief: (§1)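 Seeds sown in a loam–sand blend got a directed preemergence soil spray; postemergence plants (2–10 cm, one- to two-leaf stage) were sprayed with compound in a non-phytotoxic solvent plus surfactant. Injury was scored visually against untreated controls after about 10 d in a greenhouse on a 0–100 scale (100 = complete control).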

[2] = system: barnyardgrass (Echinochloa crus-galli); experiment: Test C preemergence, visual plant response rating; settings: Test C, 0 is no effect, 100 is complete control
Method in brief: as §1

[3] = system: foxtail, giant (giant foxtail, Setaria faberi); experiment: Test C preemergence, visual plant response rating; settings: Test C, 0 is no effect, 100 is complete control
Method in brief: as §1

kochia (Bassia scoparia) [4] = experiment: Test C preemergence, visual plant response rating; settings: Test C, 0 is no effect, 100 is complete control
Method in brief: as §1

[5] = system: pigweed (Amaranthus retroflexus); experiment: Test C preemergence, visual plant response rating; settings: Test C, 0 is no effect, 100 is complete control
Method in brief: as §1

[6] = system: ragweed (common ragweed, Ambrosia artemisiifolia); experiment: Test C preemergence, visual plant response rating; settings: Test C, 0 is no effect, 100 is complete control
Method in brief: as §1

[7] = system: Italian ryegrass (Lolium mutiflorum); experiment: Test C postemergence, visual plant response rating
Method in brief: as §1

[8] = system: barnyardgrass (Echinochloa crus-galli); experiment: Test C postemergence, visual plant response rating
Method in brief: as §1

[9] = system: blackgrass (Alopecurus myosuroides); experiment: Test C postemergence, visual plant response rating
Method in brief: as §1

corn (Zea mays) = experiment: Test C postemergence, visual plant response rating
Method in brief: as §1

[10] = system: foxtail, giant (giant foxtail, Setaria faberi); experiment: Test C postemergence, visual plant response rating
Method in brief: as §1

[11] = system: galium (catchweed bedstraw, Galium aparine); experiment: Test C postemergence, visual plant response rating
Method in brief: as §1

kochia (Bassia scoparia) [12] = experiment: Test C postemergence, visual plant response rating
Method in brief: as §1

[13] = system: pigweed (Amaranthus retroflexus); experiment: Test C postemergence, visual plant response rating
Method in brief: as §1

[14] = system: ragweed (common ragweed, Ambrosia artemisiifolia); experiment: Test C postemergence, visual plant response rating
Method in brief: as §1

[15] = system: wheat (Triticum aestivum); experiment: Test C postemergence, visual plant response rating
Method in brief: as §1

[16] = system: barnyardgrass (Echinochloa crus-galli); experiment: Test D flooded paddy test, visual plant response rating; settings: 250 g ai/ha, scale 0 to 100 (0 no effect, 100 complete control), 13 to 15 d
Method in brief: (§2)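 Plants grown to the 2-leaf stage; pots flooded to 3 cm above soil and compound applied directly into paddy water, depth held throughout. Kept in greenhouse 13 to 15 d, then rated visually against untreated controls on a 0–100 scale (0 no effect, 100 complete control).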

[17] = system: duck salad (Heteranthera limosa); experiment: as above; settings: 250 g ai/ha, scale 0 to 100 (0 no effect, 100 complete control), 13 to 15 d
Method in brief: as §2

rice (Oryza sativa) = experiment: as above; settings: 250 g ai/ha, scale 0 to 100 (0 no effect, 100 complete control), 13 to 15 d
Method in brief: as §2

[18] = system: sedge umbrella (small-flower umbrella sedge, Cyperus difformis); experiment: as above; settings: 250 g ai/ha, scale 0 to 100 (0 no effect, 100 complete control), 13 to 15 d
Method in brief: as §2

[19] = Test C, postemergence, 125 g ai/ha

SMILES | Ryegrass, Italian plant response rating (0 to 100 scale) ([1]; 31 g ai/ha) | Ryegrass, Italian plant response rating (0 to 100 scale) ([1]; 125 g ai/ha) | Barnyardgrass plant response rating (0 to 100 scale) ([2]; 31 g ai/ha) | Barnyardgrass plant response rating (0 to 100 scale) ([2]; 125 g ai/ha) | Foxtail, Giant plant response rating (0 to 100 scale) ([3]; 31 g ai/ha) | Foxtail, Giant plant response rating (0 to 100 scale) ([3]; 125 g ai/ha) | Kochia plant response rating (0 to 100 scale) (kochia (Bassia scoparia) [4]; 31 g ai/ha) | Kochia plant response rating (0 to 100 scale) (kochia (Bassia scoparia) [4]; 125 g ai/ha) | Pigweed plant response rating (0 to 100 scale) ([5]; 31 g ai/ha) | Pigweed plant response rating (0 to 100 scale) ([5]; 125 g ai/ha) | Ragweed plant response rating (0 to 100 scale) ([6]; 31 g ai/ha) | Ragweed plant response rating (0 to 100 scale) ([6]; 125 g ai/ha) | Ryegrass, Italian plant response rating (0 to 100 scale) ([7]; Postemergence, 31 g ai/ha) | Ryegrass, Italian plant response rating (0 to 100 scale) [7, 19] | Barnyardgrass plant response rating (0 to 100 scale) ([8]; Postemergence, 31 g ai/ha) | Barnyardgrass plant response rating (0 to 100 scale) [8, 19] | Blackgrass plant response rating (0 to 100 scale) ([9]; Postemergence, 31 g ai/ha) | Blackgrass plant response rating (0 to 100 scale) [9, 19] | Corn plant response rating (0 to 100 scale) (corn (Zea mays); Postemergence, 31 g ai/ha) | Corn plant response rating (0 to 100 scale) (corn (Zea mays); [19]) | other results
CCOc1cccc(C(=NOC)c2c(O)c(C)nn(C)c2=O)c1 [Compound 200] | 0 | 0 | 0 | 0 | 0 | 10 | 0 | 0 | 0 | 0 | 0 | 0 | 0 | 0 | 20 | 30 | 0 | 0 | 0 | 0 | Foxtail, Giant plant response rating (0 to 100 scale) ([10]; Postemergence, 31 g ai/ha): 10; Foxtail, Giant plant response rating (0 to 100 scale) [10, 19]: 20; Galium plant response rating (0 to 100 scale) ([11]; Postemergence, 31 g ai/ha): 30; Galium plant response rating (0 to 100 scale) [11, 19]: 40; Kochia plant response rating (0 to 100 scale) (kochia (Bassia scoparia) [12]; Postemergence, 31 g ai/ha): 0; Kochia plant response rating (0 to 100 scale) (kochia (Bassia scoparia) [12]; [19]): 0; Pigweed plant response rating (0 to 100 scale) ([13]; Postemergence, 31 g ai/ha): 0; Pigweed plant response rating (0 to 100 scale) [13, 19]: 0; Ragweed plant response rating (0 to 100 scale) ([14]; Postemergence, 31 g ai/ha): 0; Ragweed plant response rating (0 to 100 scale) [14, 19]: 0; Wheat plant response rating (0 to 100 scale) ([15]; Postemergence, 31 g ai/ha): 0; Wheat plant response rating (0 to 100 scale) [15, 19]: 0; Plant response rating, Barnyardgrass (Flood) [16]: 0; Plant response rating, Ducksalad (Flood) [17]: 0; Plant response rating, Rice (Flood) (rice (Oryza sativa)): 0; Plant response rating, Sedge, Umbrella (Flood) [18]: 0
CCO/N=C(\c1c(O)c(C)nn(C)c1=O)c1cccc2cc(Cl)ccc12 [Compound 273] | 0 | 40 | 40 | 80 | 80 | 90 | 0 | 40 | 90 | 90 | 20 | 20 | 10 | 60 | 40 | 80 | 80 | 90 | 0 | 30 | Foxtail, Giant plant response rating (0 to 100 scale) ([10]; Postemergence, 31 g ai/ha): 100; Foxtail, Giant plant response rating (0 to 100 scale) [10, 19]: 100; Galium plant response rating (0 to 100 scale) ([11]; Postemergence, 31 g ai/ha): 100; Galium plant response rating (0 to 100 scale) [11, 19]: 100; Kochia plant response rating (0 to 100 scale) (kochia (Bassia scoparia) [12]; Postemergence, 31 g ai/ha): 40; Kochia plant response rating (0 to 100 scale) (kochia (Bassia scoparia) [12]; [19]): 60; Pigweed plant response rating (0 to 100 scale) ([13]; Postemergence, 31 g ai/ha): 90; Pigweed plant response rating (0 to 100 scale) [13, 19]: 100; Ragweed plant response rating (0 to 100 scale) ([14]; Postemergence, 31 g ai/ha): 90; Ragweed plant response rating (0 to 100 scale) [14, 19]: 100; Wheat plant response rating (0 to 100 scale) ([15]; Postemergence, 31 g ai/ha): 0; Wheat plant response rating (0 to 100 scale) [15, 19]: 0; Plant response rating, Barnyardgrass (Flood) [16]: 90; Plant response rating, Ducksalad (Flood) [17]: 95; Plant response rating, Rice (Flood) (rice (Oryza sativa)): 85; Plant response rating, Sedge, Umbrella (Flood) [18]: 95
CCO/N=C(\c1c(O)cnn(C)c1=O)c1ccc(F)c2ccccc12 [Compound 269] | 0 | 10 | 0 | 0 | 0 | 30 | 0 | 0 | 0 | 10 | 0 | 0 | 0 | 60 | 0 | 0 | 0 | 30 | 0 | 20 | Foxtail, Giant plant response rating (0 to 100 scale) ([10]; Postemergence, 31 g ai/ha): 10; Foxtail, Giant plant response rating (0 to 100 scale) [10, 19]: 40; Galium plant response rating (0 to 100 scale) ([11]; Postemergence, 31 g ai/ha): 50; Galium plant response rating (0 to 100 scale) [11, 19]: 80; Kochia plant response rating (0 to 100 scale) (kochia (Bassia scoparia) [12]; Postemergence, 31 g ai/ha): 0; Kochia plant response rating (0 to 100 scale) (kochia (Bassia scoparia) [12]; [19]): 30; Pigweed plant response rating (0 to 100 scale) ([13]; Postemergence, 31 g ai/ha): 50; Pigweed plant response rating (0 to 100 scale) [13, 19]: 60; Ragweed plant response rating (0 to 100 scale) ([14]; Postemergence, 31 g ai/ha): 10; Ragweed plant response rating (0 to 100 scale) [14, 19]: 40; Wheat plant response rating (0 to 100 scale) ([15]; Postemergence, 31 g ai/ha): 0; Wheat plant response rating (0 to 100 scale) [15, 19]: 0; Plant response rating, Barnyardgrass (Flood) [16]: 0; Plant response rating, Ducksalad (Flood) [17]: 0; Plant response rating, Rice (Flood) (rice (Oryza sativa)): 0; Plant response rating, Sedge, Umbrella (Flood) [18]: 0
